Data on 16 compounds can be found in patent US9850247B2 (Almac Discovery Limited, priority 2013, dated 2017).

pEC50, pIC50: −log10 of the molar value.

Data set [1] has as its system phospho-cdc2 (Tyr15) in HT-29 cells. As to the kind of experiment: Effect on Cdc2 phosphorylation at Tyr15, Cell-Based ELISA Base Kit (Method 3). The settings on record: Homo sapiens, HT-29, 8 h, eight hours incubation, normalized to total cdc2, read-out: HT29 pCDC2 method 3. The protocol:
Method 3: Determining the Effect of Compounds on the Cdc2 phosphorylation at Tyr15, using a Cell-Based ELISA Base Kit (R&D Systems, KCB001)
The colorectal cancer cell line, HT-29 was purchased from the ATCC and maintained in McCoy's 5 A medium (Gibco®, Life technologies) supplemented with 10% Foetal Calf Serum (FCS).
The cells were trypsinised and counted, 100 μL of 8000 cells was seeded into each well of a clear-bottom black 96-well microplate and incubated overnight to allow adherence to the surface, at 37° C. and 5% CO2 in a cell culture incubator.
Test compounds were formulated in DMSO and diluted in cell culture medium supplemented with FCS. Grow medium was removed from cells and medium containing compounds dilutions was added to each well. The plate was returned to the incubator for an additional eight hours of incubation at 37° C. and 5% CO2.
Post incubation cells were fixed by replacing the compounds supplemented medium with 100 μL of 4% formaldehyde in 1× phosphate buffered saline (PBS), for 20 minutes at room temperature. Formaldehyde solution was removed and cells were washed three times with PBS. The Cell-Based ELISA assay (R&D Systems) was carried out immediately after cell fixation or the plate was sealed and fixed cells were stored in PBS at 4° C. until required (no more than two weeks).
To continue the assay, PBS was removed and cells were washed 3 times for 5 minutes with 200 μL of 1× wash buffer. Each wash step was carried out with gentle shaking. Following washes, 100 μL of 0.6% H2O2 in 1× wash buffer (quenching buffer) was added, plate was sealed and incubated for 20 minutes at room temperature. Post incubation cells were washes 3 times for 5 minutes with 200 μL of 1× wash buffer, with gentle shaking. 100 μL of blocking buffer was added to each well, the plate was re-sealed and incubated at room temperature for 1 h.
After blocking, cells were washed as described above. A primary antibody mixture was prepared by mixing the two primary antibodies, a rabbit monoclonal antibody for phospho-cdc2 (Tyr15) (Cell Signaling, #4539) and mouse monoclonal antibody for total cdc2 p34 (Santa Cruz Biotechnology, sc-54), diluted 1:25 and 1:50 in blocking buffer, respectively. 60 μL of primary antibody mixture was added to each well, the plate was sealed and incubated overnight at 4° C.
The primary antibodies were removed and cells were washed as previously described. 100 μL of secondary antibody mixture, containing horseradish-peroxidase (HRP)-conjugated goat anti-rabbit IgG and alkaline phosphatase (AP)-conjugated goat anti-mouse IgG, diluted 1:100 in blocking buffer, was added to each test well. The plate was re-sealed and incubated for 2 hours at room temperature.
The secondary antibodies were removed and cells washed 2 times with wash buffer, followed by 2 washes with PBS. Each wash step was carried out for 5 minutes with gentle shaking. PBS was removed and 75 μL of fluorogenic substrate for HRP (substrate F1) added to each well. The plate was sealed and incubated for 1 h at room temperature, in the dark. 75 μL of fluorogenic substrate for AP (substrate F2) was added directly to each well, plate re-sealed and incubated for additional 40 minutes at room temperature, protected from direct light.
Following incubation fluorescence from each well was read at 600 nm (signal from substrate 1, phosphorylated protein) and then at 450 nm (signal from substrate 2, total protein).
The percentage of phospho-cdc2 was calculated compared to DMSO control, normalized to the total cdc2 and plotted versus the concentration of inhibitor, using GraphPad Prism. Data was fitted using a non-linear regression analysis and EC50 values generated.
(In general: An ELISA detects its analyte on a solid surface through an enzyme-linked reagent.)

The nature of data set [2]: CLint estimates using human liver microsomes (Method 4). The settings on record: pH 7.4, 1 μM compound, read-out: Mics - CLint (HLM CLint). Type of data set: in vitro ADME. The essentials:
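Compound at 1 μM (0.1% DMSO) incubated with human liver microsomes (0.5 mg protein/mL) in 0.1 M phosphate pH 7.4 at 37 °C, started with 1 mM NADPH. Samples taken 2–50 min, quenched in methanol, measured by LC/MS/MS (MRM). Half-life and CLint derived from the slope of ln peak area versus time.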

In another data set the target is T1, Wee-1 kinase (Homo sapiens, UniProt P30291).
T1 construct: purchased Invitrogen PV3817
As to the kind of experiment: Measurement of Wee-1 kinase activity (ADP-Glo luminescent kit). The class given is biochemical. The essentials: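 Activated Wee-1 was pre-incubated 30 min at RT with compound in 40 mM Tris-HCl, 20 mM MgCl2, 0.1 mg/mL BSA and 2 mM DTT. The reaction was started with an aliquot of 2.0 μg/mL poly(Lys,Tyr 4:1) plus 30 μM ATP and run 1 h at RT. ADP-Glo luminescence gave IC50 by non-linear fit.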
For orientation: In ADP-Glo the light output rises with the ADP produced.

T1 sequence (P30291 whole entry): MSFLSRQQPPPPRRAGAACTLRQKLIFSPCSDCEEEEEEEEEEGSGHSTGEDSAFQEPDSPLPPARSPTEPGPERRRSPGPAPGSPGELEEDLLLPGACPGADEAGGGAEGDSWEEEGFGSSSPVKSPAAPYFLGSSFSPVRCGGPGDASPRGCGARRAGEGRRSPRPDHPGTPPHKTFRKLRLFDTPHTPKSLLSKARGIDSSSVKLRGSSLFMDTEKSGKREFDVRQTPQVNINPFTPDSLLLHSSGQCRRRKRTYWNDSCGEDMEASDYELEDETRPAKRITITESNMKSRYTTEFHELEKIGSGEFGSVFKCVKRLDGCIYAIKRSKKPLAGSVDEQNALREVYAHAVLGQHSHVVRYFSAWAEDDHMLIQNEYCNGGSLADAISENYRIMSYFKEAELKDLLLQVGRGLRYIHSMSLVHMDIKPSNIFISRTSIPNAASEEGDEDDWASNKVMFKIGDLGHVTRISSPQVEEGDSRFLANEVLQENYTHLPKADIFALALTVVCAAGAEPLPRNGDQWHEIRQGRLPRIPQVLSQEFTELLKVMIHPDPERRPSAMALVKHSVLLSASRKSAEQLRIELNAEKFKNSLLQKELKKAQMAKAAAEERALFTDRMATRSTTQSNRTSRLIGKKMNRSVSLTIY

One may read the pIC50 as the negative decadic logarithm of the IC50, by convention in mol/L. As to `COC[C@H]1CN(c2ccc(Nc3ncc4c(n3)N(C)CN(c3c(F)cccc3Cl)C4=O)cc2)CCN1` [Example 126, (R)-3-(2-chloro-6-fluorophenyl)-7-((4-(3-(methoxymethyl)piperazin-1-yl)phenyl)amino)-1-methyl-2,3-dihydropyrimido[4,5-d]pyrimidin-4(1H)-one], the pEC50 in data set [1] was no more than 6.00. For the same compound, in data set [2], the microsomal CLint at 1 μM was no more than 15 µL/min/mg. Further, the pIC50 at Wee-1 kinase is 7.00 to 8.00.

Consider `COC[C@H]1CN(c2ccc(Nc3ncc4c(n3)N(C)CN(c3c(Cl)cccc3Cl)C4=O)cc2CO)CCN1` [Example 135, (R)-3-(2,6-dichlorophenyl)-7-((3-(hydroxymethyl)-4-(3-(methoxymethyl)piperazin-1-yl)phenyl)amino)-1-methyl-2,3-dihydropyrimido[4,5-d]pyrimidin-4(1H)-one], for which the pEC50 in data set [1] is 6.00 to 7.00. Moreover, the microsomal CLint at 1 μM in data set [2] was no more than 15 µL/min/mg. Also, the pIC50 on Wee-1 kinase was no less than 8.00.

Regarding `Cc1cc(Nc2ncc3c(n2)N(C)CN(c2c(Cl)cccc2Cl)C3=O)ccc1N1C[C@@H]2C[C@H]1CN2C` [Example 77, 3-(2,6-dichlorophenyl)-1-methyl-7-((3-methyl-4-((1S,4S)-5-methyl-2,5-diazabicyclo[2.2.1]heptan-2-yl)phenyl)amino)-2,3-dihydropyrimido[4,5-d]pyrimidin-4(1H)-one], the pEC50 in data set [1] is 6.00 to 7.00. In data set [2], the microsomal CLint at 1 μM is 15 to 50 µL/min/mg. Further, the pIC50 on Wee-1 kinase is no less than 8.00.

Regarding `CNCc1cccc(N2CN(c3c(Cl)cccc3Cl)C(=O)c3cnc(Nc4ccc(N5CCOCC5)cc4)nc32)c1` [Example 168, 3-(2,6-dichlorophenyl)-1-(3-((methylamino)methyl)phenyl)-7-((4-morpholinophenyl)amino)-2,3-dihydropyrimido[4,5-d]pyrimidin-4(1H)-one], the pEC50 in data set [1] was 6.00 to 7.00. For the same compound, the microsomal CLint at 1 μM in data set [2] is no more than 15 µL/min/mg. For the same compound, on Wee-1 kinase, the pIC50 is no less than 8.00.

On to `CNCc1cc(Nc2ncc3c(n2)N(C)CN(c2c(Cl)cccc2Cl)C3=O)ccc1N1CCCC1` [Example 137, 3-(2,6-dichlorophenyl)-1-methyl-7-((3-((methylamino)methyl)-4-(pyrrolidin-1-yl)phenyl)amino)-2,3-dihydropyrimido[4,5-d]pyrimidin-4(1H)-one], for which, in data set [1], the pEC50 is 6.00 to 7.00. Also, in data set [2], the microsomal CLint at 1 μM is no less than 50 µL/min/mg. Besides, on Wee-1 kinase, the pIC50 was 7.00 to 8.00.

With `C[C@@H]1CN(c2ccc(Nc3ncc4c(n3)N(C)CN(c3c(Cl)cccc3Cl)C4=O)cc2CN(C)C)C[C@H](C)O1` [Example 151, 3-(2,6-dichlorophenyl)-7-((3-((dimethylamino)methyl)-4-((2S,6R)-2,6-dimethylmorpholino)phenyl)amino)-1-methyl-2,3-dihydropyrimido[4,5-d]pyrimidin-4(1H)-one], the pEC50 in data set [1] was 6.00 to 7.00. The microsomal CLint at 1 μM in data set [2] is no less than 50 µL/min/mg. Moreover, on Wee-1 kinase, the pIC50 is no less than 8.00.

As for `CNCc1cc(Nc2ncc3c(n2)N(C)CN(c2c(Cl)cccc2Cl)C3=O)ccc1N1C[C@@H](C)O[C@@H](C)C1` [Example 148, 3-(2,6-dichlorophenyl)-7-((4-((2S,6R)-2,6-dimethylmorpholino)-3-((methylamino)methyl)phenyl)amino)-1-methyl-2,3-dihydropyrimido[4,5-d]pyrimidin-4(1H)-one], the pEC50 in data set [1] was 6.00 to 7.00. Besides, the microsomal CLint at 1 μM in data set [2] was 15 to 50 µL/min/mg. Moreover, the pIC50 on Wee-1 kinase is no less than 8.00.

For `COC[C@H]1CN(c2ccc(Nc3ncc4c(n3)N(C)CN(c3c(Cl)cccc3Cl)C4=O)cc2C(O)C(F)F)CCN1` (single isomer, unassigned) [Example 162], the pEC50 in data set [1] is 6.00 to 7.00. Besides, the microsomal CLint at 1 μM in data set [2] was 15 to 50 µL/min/mg. In addition, the pIC50 at Wee-1 kinase was no less than 8.00.

For the compound `CNCc1cc(Nc2ncc3c(n2)N(C)CN(c2c(Cl)cccc2Cl)C3=O)ccc1N1CCC(F)(F)CC1` [Example 147, 3-(2,6-dichlorophenyl)-7-((4-(4,4-difluoropiperidin-1-yl)-3-((methylamino)methyl)phenyl)amino)-1-methyl-2,3-dihydropyrimido[4,5-d]pyrimidin-4(1H)-one], the pEC50 in data set [1] was 6.00 to 7.00. In addition, the microsomal CLint at 1 μM in data set [2] is no more than 15 µL/min/mg. Moreover, the pIC50 on Wee-1 kinase is no less than 8.00.

As for `CN1CN(c2c(Cl)cccc2Cl)C(=O)c2cnc(Nc3ccc(N4CC5CCC(C4)N5C)cc3)nc21` [Example 88, 3-(2,6-dichlorophenyl)-1-methyl-7-((4-(8-methyl-3,8-diazabicyclo[3.2.1]octan-3-yl)phenyl)amino)-2,3-dihydropyrimido[4,5-d]pyrimidin-4(1H)-one], the pEC50 in data set [1] is 6.00 to 7.00. For the same compound, in data set [2], the microsomal CLint at 1 μM was 15 to 50 µL/min/mg. Further, the pIC50 at Wee-1 kinase is no less than 8.00.

As to `C[C@@H]1CN(c2ccc(Nc3ncc4c(n3)N(C)CN(c3c(Cl)cccc3Cl)C4=O)cc2)C[C@H](C)N1` [Example 83, 3-(2,6-dichlorophenyl)-7-((4-((3R,5S)-3,5-dimethylpiperazin-1-yl)phenyl)amino)-1-methyl-2,3-dihydropyrimido[4,5-d]pyrimidin-4(1H)-one], the pEC50 in data set [1] was 6.00 to 7.00. Besides, in data set [2], the microsomal CLint at 1 μM was 15 to 50 µL/min/mg. Besides, the pIC50 at Wee-1 kinase is no less than 8.00.

For the compound `CN1CCN(c2ccc(Nc3ncc4c(n3)N(C)CN(c3c(Cl)cccc3Cl)C4=O)cc2)[C@H](CO)C1` [Example 128, (S)-3-(2,6-dichlorophenyl)-7-((4-(2-(hydroxymethyl)-4-methylpiperazin-1-yl)phenyl)amino)-1-methyl-2,3-dihydropyrimido[4,5-d]pyrimidin-4(1H)-one], in data set [1], the pEC50 is 6.00 to 7.00. Moreover, in data set [2], the microsomal CLint at 1 μM is 15 to 50 µL/min/mg. The pIC50 at Wee-1 kinase is 7.00 to 8.00.

For `CN(C)CC(=O)N1CCN(c2ccc(Nc3ncc4c(n3)N(C)CN(c3c(Cl)cccc3Cl)C4=O)cc2)CC1` [Example 123, 3-(2,6-dichlorophenyl)-7-((4-(4-(2-(dimethylamino)acetyl)piperazin-1-yl)phenyl)amino)-1-methyl-2,3-dihydropyrimido[4,5-d]pyrimidin-4(1H)-one], the pEC50 in data set [1] was 6.00 to 7.00. In addition, the microsomal CLint at 1 μM in data set [2] is no less than 50 µL/min/mg. Besides, at Wee-1 kinase, the pIC50 is no less than 8.00.

As for `CN1CCC(c2ccc(Nc3ncc4c(n3)N(C)CN(c3c(Cl)cccc3Cl)C4=O)cc2CO)CC1` [Example 165, 3-(2,6-dichlorophenyl)-7-((3-(hydroxymethyl)-4-(1-methylpiperidin-4-yl)phenyl)amino)-1-methyl-2,3-dihydropyrimido[4,5-d]pyrimidin-4(1H)-one], in data set [1], the pEC50 was 6.00 to 7.00. Moreover, in data set [2], the microsomal CLint at 1 μM was no more than 15 µL/min/mg. In addition, the pIC50 on Wee-1 kinase is no less than 8.00.

For `CCN1CN(c2c(Cl)cccc2Cl)C(=O)c2cnc(Nc3ccc(N4CCNCC4)cc3)nc21` [Example 169, 3-(2,6-dichlorophenyl)-1-ethyl-7-((4-(piperazin-1-yl)phenyl)amino)-2,3-dihydropyrimido[4,5-d]pyrimidin-4(1H)-one], the pEC50 in data set [1] is no more than 6.00. In addition, the microsomal CLint at 1 μM in data set [2] was no more than 15 µL/min/mg. Besides, the pIC50 on Wee-1 kinase was 7.00 to 8.00.

As to `CN1Cc2cc(Nc3ncc4c(n3)N(C)CN(c3c(Cl)cccc3Cl)C4=O)ccc2C2(CC2)C1` [Example 76, 3-(2,6-dichlorophenyl)-1-methyl-7-((2′-methyl-2′,3′-dihydro-1′H-spiro[cyclopropane-1,4′-isoquinolin]-7′-yl)amino)-2,3-dihydropyrimido[4,5-d]pyrimidin-4(1H)-one], the pEC50 in data set [1] was 6.00 to 7.00. Besides, in data set [2], the microsomal CLint at 1 μM was no less than 50 µL/min/mg. Besides, the pIC50 on Wee-1 kinase is no less than 8.00.
